Molecular target: T1, Bovine renal cortical plasma membranes (Bos taurus, UniProt Q1LZF7)
T1 construct: from tissue; host or cells: bovine renal cortex plasma membranes
T1 sequence (Q1LZF7 29-589): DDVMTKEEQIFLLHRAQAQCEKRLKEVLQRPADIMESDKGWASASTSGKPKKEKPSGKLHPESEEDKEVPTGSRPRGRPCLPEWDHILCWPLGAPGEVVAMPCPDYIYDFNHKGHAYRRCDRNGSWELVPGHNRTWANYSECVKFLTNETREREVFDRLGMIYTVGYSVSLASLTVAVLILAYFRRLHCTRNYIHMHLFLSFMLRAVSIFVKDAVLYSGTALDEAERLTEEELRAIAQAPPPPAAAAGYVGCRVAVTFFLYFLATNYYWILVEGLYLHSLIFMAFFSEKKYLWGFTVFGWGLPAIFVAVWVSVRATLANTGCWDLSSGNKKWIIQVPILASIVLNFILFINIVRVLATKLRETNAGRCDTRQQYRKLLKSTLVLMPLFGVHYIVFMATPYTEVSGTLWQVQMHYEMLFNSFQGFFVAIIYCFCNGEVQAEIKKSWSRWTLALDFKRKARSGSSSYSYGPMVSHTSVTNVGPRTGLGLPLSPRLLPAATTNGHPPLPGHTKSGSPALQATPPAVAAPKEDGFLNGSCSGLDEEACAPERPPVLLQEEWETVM
Experiment: HCF binding (receptor) assay with [Nle8,18,(125I)-Tyr34]bPTH(1-34)NH2 radioligand
Conditions: radioligand [Nle8,18,(125I)-Tyr34]bPTH(1-34)NH2, 30 min at 21° C
Protocol: HCF analogues were analysed in a new receptor assay (Goldman et al., Endocrinol. (1988) 123: 1468-1475) which modified the assay reported in Rosenblatt et al., Endocrin. 107: 545-550 (1980). The binding assay used [Nle^8,18 (^125 I)-Tyr^34 ]bPTH (1-34)NH2 which was purified by HPLC (Novapak C18, 32-35% CH3 CN in 0.1% TFA) and was stored as aliquots in 25 mM TrisHCl/1%BSA at -70° C. Bovine renal cortical plasma membranes were incubated with radioligand (25,000 cpm) in the absence or presence of HCF analogues in a Tris-containing buffer (250 μl) for 30 min. at 21° C. Once equilibrium was reached, bound and free radioligand were separated by centrifugation.
High specific binding (85%) to bovine renal cortical membranes was obtained consistently.

Structure (SMILES): CC[C@H](C)[C@H](NC(=O)[C@H](CC(C)C)NC(=O)[C@H](Cc1c[nH]cn1)NC(=O)[C@H](Cc1c[nH]cn1)NC(=O)[C@H](CC(C)C)NC(=O)[C@H](Cc1ccccc1)NC(=O)[C@H](Cc1ccccc1)NC(=O)[C@H](CCCNC(=N)N)NC(=O)[C@H](CCCNC(=N)N)NC(=O)[C@H](CCCNC(=N)N)NC(=O)[C@H](CC(C)C)NC(=O)[C@H](CC(=O)O)NC(=O)[C@H](CCC(N)=O)NC(=O)[C@@H](NC(=O)[C@@H](N)CO)[C@@H](C)CC)C(=O)N[C@@H](C)C(=O)N[C@@H](CCC(=O)O)C(=O)N[C@H](C(=O)N[C@@H](Cc1c[nH]cn1)C(=O)N[C@H](C(=O)N[C@@H](C)C(N)=O)[C@@H](C)O)[C@@H](C)CC [hHCF(14-34)NH2]
- Ki: 1400 ± 83 nM
